Molecules are shown by their SMILES.

For this assay, the target named is T1, MAP3K2 (MEKK2) (Homo sapiens, UniProt Q9Y2U5).
T1 construct: purchased Thermo Fisher Scientific (Life Technologies) SelectScreen
Briefly: SelectScreen LanthaScreen. The class given is binding. As to conditions: read-out: % displacement. In outline:
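Percent values come from Thermo SelectScreen profiling of NU5455, combining activity and binding assays. CSF1R was run in Z'LYTE format at Km app ATP, and CAMK1 in Adapta format with ATP listed at 10.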

T1 sequence (Q9Y2U5 whole entry): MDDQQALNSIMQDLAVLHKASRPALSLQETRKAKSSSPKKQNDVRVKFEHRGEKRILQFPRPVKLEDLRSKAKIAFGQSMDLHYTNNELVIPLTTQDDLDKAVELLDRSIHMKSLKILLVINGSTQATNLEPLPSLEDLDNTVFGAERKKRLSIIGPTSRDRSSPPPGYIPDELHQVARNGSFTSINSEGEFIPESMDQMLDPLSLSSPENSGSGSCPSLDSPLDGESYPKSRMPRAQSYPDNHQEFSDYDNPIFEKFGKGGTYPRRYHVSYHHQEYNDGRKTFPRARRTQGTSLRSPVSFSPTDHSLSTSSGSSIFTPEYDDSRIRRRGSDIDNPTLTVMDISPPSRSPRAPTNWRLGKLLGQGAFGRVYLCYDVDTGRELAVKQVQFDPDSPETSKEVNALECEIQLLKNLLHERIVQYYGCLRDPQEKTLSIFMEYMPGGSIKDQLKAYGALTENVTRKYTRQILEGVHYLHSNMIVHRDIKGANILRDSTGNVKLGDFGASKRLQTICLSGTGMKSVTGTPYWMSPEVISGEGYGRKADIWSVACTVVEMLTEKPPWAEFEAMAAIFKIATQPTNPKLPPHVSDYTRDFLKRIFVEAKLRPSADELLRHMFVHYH

For `CN(C(=O)CN1CCOCC1)c1ccc2sc3c(-c4cccc5c(=O)cc(N6CC7CCC(C6)O7)oc45)cccc3c2c1` [NU5455], the inhibition at 1 µM was found to be 0.1%.

Source of the values: publication PMC6934184, “Selective DNA-PKcs inhibition extends the therapeutic index of localized radiotherapy and chemotherapy” (The Journal of Clinical Investigation, 2019).
